Results on 27 compounds are retold here after US12264134B2 (Merck Sharp & Dohme LLC, priority 2018, dated 2025).

Sequence of IDO1 (P14902 whole entry): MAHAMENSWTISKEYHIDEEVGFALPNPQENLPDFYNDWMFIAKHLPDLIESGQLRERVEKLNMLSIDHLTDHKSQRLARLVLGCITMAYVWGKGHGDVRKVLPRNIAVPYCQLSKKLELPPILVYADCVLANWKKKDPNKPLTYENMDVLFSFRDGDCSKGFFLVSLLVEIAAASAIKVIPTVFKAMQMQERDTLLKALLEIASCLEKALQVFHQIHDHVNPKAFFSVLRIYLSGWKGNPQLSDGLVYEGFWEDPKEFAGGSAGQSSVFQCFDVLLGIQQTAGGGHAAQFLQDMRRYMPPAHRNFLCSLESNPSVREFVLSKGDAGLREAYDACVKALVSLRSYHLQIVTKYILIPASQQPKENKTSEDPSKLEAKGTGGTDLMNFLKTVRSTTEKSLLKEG

The assay concerns the target IDO1 (Homo sapiens, UniProt P14902). Briefly: IDO1 Cellular Assay in HeLa Cells Stimulated with IFNγ. The assay is classed as cell-based. The following applies: read-out: HeLa Cell Potency, IC50.
Take `Cc1cccc(N2CCN(C(=O)Cn3nc(C(=O)N4CCC(O)CC4(C)C)c4c3CCC4)CC2)c1C` (stereo not drawn) [Example 119, 1-[4-(2,3-dimethylphenyl)piperazin-1-yl]-2-[3-(4-hydroxy-2,2-dimethylpiperidine-1-carbonyl)-5,6-dihydrocyclopenta[c]pyrazol-1(4H)-yl]ethan-1-one]: the IC50 (in general, the concentration that inhibits the measured activity by half) was found to be 33.3 nM. The same measure for `Cc1cccc(N2CCN(C(=O)Cn3nc(C(=O)N4CCC5(CC4)CC(=O)N(C)C5)c4c3CCC4)CC2)c1C` [Example 121, 8-(1-{2-[4-(2,3-dimethylphenyl)piperazin-1-yl]-2-oxoethyl}-1,4,5,6-tetrahydrocyclopenta[c]pyrazole-3-carbonyl)-2-methyl-2,8-diazaspiro[4.5]decan-3-one]: 17.1 nM; for `Cc1cccc(N2CCN(C(=O)Cn3nc(C(=O)N4CC[C@H](CO)[C@H](F)C4)c4c3CCC4)CC2)c1C` [Example 122, 1-[4-(2,3-dimethylphenyl)piperazin-1-yl]-2-{3-[(3S,4R)-3-fluoro-4-(hydroxymethyl)piperidine-1-carbonyl]-5,6-dihydrocyclopenta[c]pyrazol-1(4H)-yl}ethan-1-one]: 10.3 nM; for `Cc1cccc(N2CCN(C(=O)Cn3nc(C(=O)N4CCN(C5CC5)CC4)c4c3CCC4)CC2)c1C` [Example 123, 2-[3-(4-cyclopropylpiperazine-1-carbonyl)-5,6-dihydrocyclopenta[c]pyrazol-1(4H)-yl]-1-[4-(2,3-dimethylphenyl)piperazin-1-yl]ethan-1-one]: 10.1 nM. Consider `Cc1cccc(N2CCN(C(=O)Cn3nc(C(=O)N4CC5C(CO)C5C4)c4c3CCC4)CC2)c1C` (stereo not drawn) [Example 131, 1-[4-(2,3-dimethylphenyl)piperazin-1-yl]-2-{3-[6-(hydroxymethyl)-3-azabicyclo[3.1.0]hexane-3-carbonyl]-5,6-dihydrocyclopenta[c]pyrazol-1(4H)-yl}ethan-1-one], for which the concentration for half-maximal inhibition (IC50) was 23.2 nM. In the case of `Cc1cccc(N2CCN(C(=O)Cn3nc(C(=O)N4CCC(n5cncn5)CC4)c4c3CCC4)CC2)c1C` [Example 132, 1-[4-(2,3-dimethylphenyl)piperazin-1-yl]-2-{3-[4-(1H-1,2,4-triazol-1-yl)piperidine-1-carbonyl]-5,6-dihydrocyclopenta[c]pyrazol-1(4H)-yl}ethan-1-one], the IC50 was determined as 4.55 nM. The same measure for `Cc1cccc(N2CCN(C(=O)Cn3nc(C(=O)N4CCC5(CC4)NC(=O)NC5=O)c4c3CCC4)CC2)c1C` [Example 133, 8-(1-{2-[4-(2,3-dimethylphenyl)piperazin-1-yl]-2-oxoethyl}-1,4,5,6-tetrahydrocyclopenta[c]pyrazole-3-carbonyl)-1,3,8-triazaspiro[4.5]decane-2,4-dione]: 141 nM; for `CC1=NC2(CCN(C(=O)c3nn(CC(=O)N4CCN(c5cccc(C)c5C)CC4)c4c3CCC4)CC2)C(=O)N1` [Example 134, 8-(1-{2-[4-(2,3-dimethylphenyl)piperazin-1-yl]-2-oxoethyl}-1,4,5,6-tetrahydrocyclopenta[c]pyrazole-3-carbonyl)-2-methyl-1,3,8-triazaspiro[4.5]dec-1-en-4-one]: 15.8 nM; for `Cc1cccc(N2CCN(C(=O)Cn3nc(C(=O)N4CCC5(CC4)C[C@H](C)OC5=O)c4c3CCC4)CC2)c1C` [Example 135, (3S)-8-(1-{2-[4-(2,3-dimethylphenyl)piperazin-1-yl]-2-oxoethyl}-1,4,5,6-tetrahydrocyclopenta[c]pyrazole-3-carbonyl)-3-methyl-2-oxa-8-azaspiro[4.5]decan-1-one]: 38.5 nM.

With `CNC(=O)C1CCN(C(=O)c2nn(CC(=O)N3CCN(c4cccc(C)c4C)CC3)c3c2CCC3)CC1` [Example 136, 1-(1-{2-[4-(2,3-dimethylphenyl)piperazin-1-yl]-2-oxoethyl}-1,4,5,6-tetrahydrocyclopenta[c]pyrazole-3-carbonyl)-N-methylpiperidine-4-carboxamide], the IC50 was found to be 21.2 nM. For `Cc1cccc(N2CCN(C(=O)Cn3nc(C(=O)N4CCC(C(N)=O)CC4)c4c3CCC4)CC2)c1C` [Example 137, 1-(1-{2-[4-(2,3-dimethylphenyl)piperazin-1-yl]-2-oxoethyl}-1,4,5,6-tetrahydrocyclopenta[c]pyrazole-3-carbonyl)piperidine-4-carboxamide] the value was 19.3 nM; for `Cc1cccc(N2CCN(C(=O)Cn3nc(C(=O)N4CCC(n5nccn5)CC4)c4c3CCC4)CC2)c1C` [Example 138, 1-[4-(2,3-dimethylphenyl)piperazin-1-yl]-2-{3-[4-(2H-1,2,3-triazol-2-yl)piperidine-1-carbonyl]-5,6-dihydrocyclopenta[c]pyrazol-1(4H)-yl}ethan-1-one], 3.92 nM.

As for `Cc1cccc(N2CCN(C(=O)Cn3nc(C(=O)N4CCC(S(C)(=O)=O)CC4)c4c3CCC4)CC2)c1C` [Example 139, 1-[4-(2,3-dimethylphenyl)piperazin-1-yl]-2-{3-[4-(methylsulfonyl)piperidine-1-carbonyl]-5,6-dihydrocyclopenta[c]pyrazol-1(4H)-yl}ethan-1-one], the IC50 is 6.98 nM. `Cc1cccc(N2CCN(C(=O)Cn3nc(C(=O)N4CCC5(CCC(=O)N5C)CC4)c4c3CCC4)CC2)c1C` [Example 140, 8-(1-{2-[4-(2,3-dimethylphenyl)piperazin-1-yl]-2-oxoethyl}-1,4,5,6-tetrahydrocyclopenta[c]pyrazole-3-carbonyl)-1-methyl-1,8-diazaspiro[4.5]decan-2-one]: the half-maximal inhibitory concentration (IC50) was found to be 7.33 nM. The same measure for `Cc1cccc(N2CCN(C(=O)Cn3nc(C(=O)N4CCC5(CC4)CC5CO)c4c3CCC4)CC2)c1C` (stereo not drawn) [Example 143, 1-[4-(2,3-dimethylphenyl)piperazin-1-yl]-2-{3-[1-(hydroxymethyl)-6-azaspiro[2.5]octane-6-carbonyl]-5,6-dihydrocyclopenta[c]pyrazol-1(4H)-yl}ethan-1-one]: 1.9 nM; for `Cc1cccc(N2CCN(C(=O)Cn3nc(C(=O)N4CCC(C(C)(C)O)CC4)c4c3CCC4)CC2)c1C` [Example 144, 1-[4-(2,3-dimethylphenyl)piperazin-1-yl]-2-{3-[4-(2-hydroxypropan-2-yl)piperidine-1-carbonyl]-5,6-dihydrocyclopenta[c]pyrazol-1(4H)-yl}ethan-1-one]: 1.58 nM; for `Cc1cccc(N2CCN(C(=O)Cn3nc(C(=O)N4CCC(c5cc[nH]n5)CC4)c4c3CCC4)CC2)c1C` [Example 145, 1-[4-(2,3-dimethylphenyl)piperazin-1-yl]-2-{3-[4-(1H-pyrazol-3-yl)piperidine-1-carbonyl]-5,6-dihydrocyclopenta[c]pyrazol-1(4H)-yl}ethan-1-one]: 1.77 nM.

As to `Cc1cccc(N2CCN(C(=O)Cn3nc(C(=O)N4CCC(O)C(CO)C4)c4c3CCC4)CC2)c1C` (stereo not drawn) [Example 148, 1-[4-(2,3-dimethylphenyl)piperazin-1-yl]-2-{3-[4-hydroxy-3-(hydroxymethyl)piperidine-1-carbonyl]-5,6-dihydrocyclopenta[c]pyrazol-1(4H)-yl}ethan-1-one], the IC50 was determined as 7.98 nM. For `Cc1cccc(N2CCN(C(=O)Cn3nc(C(=O)N4CCC(O)C(F)(F)C4)c4c3CCC4)CC2)c1C` (stereo not drawn) [Example 149, 2-[3-(3,3-difluoro-4-hydroxypiperidine-1-carbonyl)-5,6-dihydrocyclopenta[c]pyrazol-1(4H)-yl]-1-[4-(2,3-dimethylphenyl)piperazin-1-yl]ethan-1-one] the value was 3.96 nM.

`Cc1cccc(N2CCN(C(=O)Cn3nc(C(=O)N4C5CCC4CC(O)C5)c4c3CCC4)CC2)c1C` (stereo not drawn) [Example 150, 1-[4-(2,3-dimethylphenyl)piperazin-1-yl]-2-[3-(3-hydroxy-8-azabicyclo[3.2.1]octane-8-carbonyl)-5,6-dihydrocyclopenta[c]pyrazol-1(4H)-yl]ethan-1-one]: the half-inhibitory concentration (IC50) was 18.5 nM. Consider `Cc1cccc(N2CCN(C(=O)Cn3nc(C(=O)N4CC5CCC4CC5O)c4c3CCC4)CC2)c1C` (stereo not drawn) [Example 151, 1-[4-(2,3-dimethylphenyl)piperazin-1-yl]-2-[3-(5-hydroxy-2-azabicyclo[2.2.2]octane-2-carbonyl)-5,6-dihydrocyclopenta[c]pyrazol-1(4H)-yl]ethan-1-one], for which the IC50 turned out to be 4.63 nM. For `Cc1cccc(N2CCN(C(=O)Cn3nc(C(=O)N4CC5CCC4CC5O)c4c3CCC4)CC2)c1C` (stereo not drawn) [Example 152, 1-[4-(2,3-dimethylphenyl)piperazin-1-yl]-2-[3-(5-hydroxy-2-azabicyclo[2.2.2]octane-2-carbonyl)-5,6-dihydrocyclopenta[c]pyrazol-1(4H)-yl]ethan-1-one], the half-inhibitory concentration (IC50) turned out to be 34.2 nM. For `Cc1cccc(N2CCN(C(=O)Cn3nc(C(=O)N4CC5CCC(F)(F)C5C4)c4c3CCC4)CC2)c1C` (stereo not drawn) [Example 153, 2-[3-(4,4-difluorohexahydrocyclopenta[c]pyrrole-2(1H)-carbonyl)-5,6-dihydrocyclopenta[c]pyrazol-1(4H)-yl]-1-[4-(2,3-dimethylphenyl)piperazin-1-yl]ethan-1-one] the value was 3.19 nM; for `Cc1cccc(N2CCN(C(=O)Cn3nc(C(=O)N4CCC(CCO)C4)c4c3CCC4)CC2)c1C` (stereo not drawn) [Example 154, 1-[4-(2,3-dimethylphenyl)piperazin-1-yl]-2-{3-[3-(2-hydroxyethyl)pyrrolidine-1-carbonyl]-5,6-dihydrocyclopenta[c]pyrazol-1(4H)-yl}ethan-1-one], 2.99 nM. For `Cc1cccc(N2CCN(C(=O)Cn3nc(C(=O)N4CCOC(CO)C4)c4c3CCC4)CC2)c1C` (stereo not drawn) [Example 155, 1-[4-(2,3-dimethylphenyl)piperazin-1-yl]-2-{3-[2-(hydroxymethyl)morpholine-4-carbonyl]-5,6-dihydrocyclopenta[c]pyrazol-1(4H)-yl}ethan-1-one] the value was 28.5 nM; for `Cc1cccc(N2CCN(C(=O)Cn3nc(C(=O)N4CCOC(CO)C4)c4c3CCC4)CC2)c1C` (stereo not drawn) [Example 156, 1-[4-(2,3-dimethylphenyl)piperazin-1-yl]-2-{3-[2-(hydroxymethyl)morpholine-4-carbonyl]-5,6-dihydrocyclopenta[c]pyrazol-1(4H)-yl}ethan-1-one], 29.3 nM.

Consider `Cc1cccc(N2CCN(C(=O)Cn3nc(C(=O)N4CCN(C(C)C)CC4)c4c3CCC4)CC2)c1C` [Example 159, 1-[4-(2,3-dimethylphenyl)piperazin-1-yl]-2-{3-[4-(propan-2-yl)piperazine-1-carbonyl]-5,6-dihydrocyclopenta[c]pyrazol-1(4H)-yl}ethan-1-one], for which the IC50 stood at 25.2 nM.
